Source: patent US20260199368A1, “[…] SYSTEM CONTAINING REMIMAZOLAM” (LTS LOHMANN THERAPIE-SYSTEME AG, priority 2022, published 2026)

Tests used:
Goettingen minipigs = assay: In vivo studies using Goettingen minipigs: depth of sedation score; conditions: Animal No 1; 10 min post dosing; IV, 2 mL of 5 mg/mL (10 mg)
[1] = In vivo studies using Goettingen minipigs: RMZ and CNS7054 plasma pharmacokinetics and bioavailability; conditions: IV, 10 mg
Experimental: In order to assess the pharmacokinetic profile and effect of buccally administered oromucosal delivery systems containing remimazolam besylate, in vivo experiments using Goettingen minipigs (female, about 3 months old, body weight was 7 kg at the start of the study) were conducted. Three minipigs were used. A single oromucosal delivery system of Examples 1c (foam) and 1d (hotmelt), prepared as described above, with a nominal amount of 20 mg remimazolam (formulated as 27.2 mg nominal remimazolam besylate), was used per animal (with the exception of animal No 3 in Phase 1, where only half of an oromucosal delivery system of each type was placed in each side). The oromucosal delivery system foam was cut into two pieces to fit on the buccal mucosa.
The dose was given by buccal administration (oromucosal delivery system; hotmelt and foam) or IV administration (10 mg remimazolam formulated as remimazolam besylate according to the treatment schedule shown in table 9. No less than 48 hours were allowed between dosing occasions to allow for proper wash-out. The treatment with the oromucosal delivery systems was performed as follows: • 1. The animals were anaesthetized by mask with isoflurane to obtain sufficient depth of anesthesia to facilitate the placement of the oromucosal delivery system without stressing the animals. The length and concentration of isoflurane anesthesia was similar in all animals. • 2. The oromucosal delivery system was placed on the buccal mucosa. A small amount of saline was applied to the mucosa to facilitate the dissolution process on a single occasion in Phase 1. • 3. The mouth of the minipigs was closed for 1-2 minutes and then opened to check for completely dissolved oromucosal delivery system. If the oromucosal delivery system was not dissolved further checks were performed with intervals of 1-2 minutes, as required. • 4. The isoflurane treatment was stopped as soon as the oromucosal delivery system was dissolved.
In order to evaluate the bioavailability, the animals also received a single intravenous (IV) dose. The IV dose volume was administered as a bolus over a period of approximately 1 minute.
The RMZ IV dose formulation was prepared in glass containers. To prepare said formulation of nominal 5 mg/mL (stock solution), a drug product vial (50 mg of RZM powder) was reconstituted with 10 mL of 0.9% w/v sodium chloride solution. The reconstituted solutions of RMZ were clear and colorless to slightly yellow. The reconstituted RMZ drug product was used within 24 hours.
After each dosing in phase 2-4, blood samples were taken from all animals. Blood samples were collected at 8 time points following application of the oromucosal delivery systems. Samples were collected at the following time points: pre-treatment, and 2, 5, 10, 20, 40, 60 and 90 minutes post-treatment.
RMZ concentrations and CNS7054 concentrations in minipig plasma were determined using a validated liquid-liquid extraction followed by LC-MS/MS. All samples, collected before treatment start, were measured to be below the limit of quantification (0.100 ng/mL).
Individual plasma concentrations are listed in Table 13 and are graphically depicted in FIGS. 3a to 5b. Additionally, basic pharmacokinetic parameters such as maximal plasma concentration (cmax), time to reaching it (tmax) and exposure defined as Area Under the Curve (AUC0-t) are summarized in Table 13 for each individual animal for both RMZ and CNS7054 and following IV administration or administration of either of the two oromucosal delivery system formulations.
For the evaluation of the bioavailability (BA), dose-normalized cmax (cmax/D) and dose-normalized AUC (AUC0-t/D) were determined for the two oromucosal delivery system formulations for RMZ and CNS7054.

With `COC(=O)CC[C@@H]1N=C(c2ccccn2)c2cc(Br)ccc2-n2c(C)cnc21.O=S(=O)(O)c1ccccc1` [RMZ, remimazolam besylate] as the compound, how does the Sedation/anaesthesia score (Goettingen minipigs) read?
Its Sedation/anaesthesia score is “¾”.

And the CNS7054 plasma concentration ([1]; Animal No 1, 1 min)?
The CNS7054 plasma concentration was 108 ng/mL.

What about the Remimazolam plasma concentration ([1]; Animal No 1, 1 min) of the same compound?
The Remimazolam plasma concentration was 1032 ng/mL.

And the CNS7054 plasma concentration ([1]; Animal No 1, 5 min)?
The CNS7054 plasma concentration was 224 ng/mL.

And the Remimazolam plasma concentration ([1]; Animal No 1, 5 min)?
Its Remimazolam plasma concentration is 767 ng/mL.

And the CNS7054 plasma concentration ([1]; Animal No 1, 10 min)?
The CNS7054 plasma concentration was 283 ng/mL.

And the Remimazolam plasma concentration ([1]; Animal No 1, 10 min)?
The Remimazolam plasma concentration was 389.5 ng/mL.

And the CNS7054 plasma concentration ([1]; Animal No 1, 20 min)?
The CNS7054 plasma concentration was 423 ng/mL.

And the Remimazolam plasma concentration ([1]; Animal No 1, 20 min)?
The Remimazolam plasma concentration was 285.5 ng/mL.

And the CNS7054 plasma concentration ([1]; Animal No 1, 40 min)?
The CNS7054 plasma concentration was 406 ng/mL.

And the Remimazolam plasma concentration ([1]; Animal No 1, 40 min)?
Its Remimazolam plasma concentration is 149.3 ng/mL.

And the CNS7054 plasma concentration ([1]; Animal No 1, 60 min)?
Its CNS7054 plasma concentration is 329 ng/mL.

And the Remimazolam plasma concentration ([1]; Animal No 1, 60 min)?
Its Remimazolam plasma concentration is 76.1 ng/mL.

What about the CNS7054 plasma concentration ([1]; Animal No 1, 90 min) of the same compound?
Its CNS7054 plasma concentration is 302 ng/mL.

And the Remimazolam plasma concentration ([1]; Animal No 1, 90 min)?
The Remimazolam plasma concentration was 40.6 ng/mL.

What about the “CNS7054 AUC0-t” value ([1]; Animal No 1) of the same compound?
Its value is 30508.5 ng·min/mL.

And the CNS7054 cmax ([1]; Animal No 1)?
The CNS7054 cmax was 423 ng/mL.

And the CNS7054 tmax ([1]; Animal No 1)?
The CNS7054 tmax was 20 min.

And the “Remimazolam AUC0-t” value ([1]; Animal No 1)?
Its value is 18349.25 ng·min/mL.

What about the Remimazolam cmax ([1]; Animal No 1) of the same compound?
The Remimazolam cmax was 1032 ng/mL.

And the Remimazolam tmax ([1]; Animal No 1)?
Its Remimazolam tmax is 2 min.

What about the CNS7054 plasma concentration ([1]; Animal No 2, 1 min) of the same compound?
The CNS7054 plasma concentration was 539 ng/mL.

And the Remimazolam plasma concentration ([1]; Animal No 2, 1 min)?
The Remimazolam plasma concentration was 1244 ng/mL.

What about the CNS7054 plasma concentration ([1]; Animal No 2, 5 min) of the same compound?
Its CNS7054 plasma concentration is 707 ng/mL.

What about the Remimazolam plasma concentration ([1]; Animal No 2, 5 min) of the same compound?
Its Remimazolam plasma concentration is 432 ng/mL.

And the CNS7054 plasma concentration ([1]; Animal No 2, 10 min)?
The CNS7054 plasma concentration was 851 ng/mL.

And the Remimazolam plasma concentration ([1]; Animal No 2, 10 min)?
Its Remimazolam plasma concentration is 469 ng/mL.

What about the CNS7054 plasma concentration ([1]; Animal No 2, 20 min) of the same compound?
The CNS7054 plasma concentration was 783 ng/mL.

What about the Remimazolam plasma concentration ([1]; Animal No 2, 20 min) of the same compound?
Its Remimazolam plasma concentration is 208.8 ng/mL.

What about the CNS7054 plasma concentration ([1]; Animal No 2, 40 min) of the same compound?
Its CNS7054 plasma concentration is 508 ng/mL.

What about the Remimazolam plasma concentration ([1]; Animal No 2, 40 min) of the same compound?
Its Remimazolam plasma concentration is 52.6 ng/mL.

And the CNS7054 plasma concentration ([1]; Animal No 2, 60 min)?
The CNS7054 plasma concentration was 267 ng/mL.

What about the CNS7054 plasma concentration ([1]; Animal No 2, 90 min) of the same compound?
The CNS7054 plasma concentration was 170 ng/mL.

And the “CNS7054 AUC0-t” value ([1]; Animal No 2)?
The value was 41688 ng·min/mL.

And the CNS7054 cmax ([1]; Animal No 2)?
Its CNS7054 cmax is 851 ng/mL.

What about the CNS7054 tmax ([1]; Animal No 2) of the same compound?
The CNS7054 tmax was 10 min.

And the “Remimazolam AUC0-t” value ([1]; Animal No 2)?
Its value is 12539.5 ng·min/mL.

What about the Remimazolam cmax ([1]; Animal No 2) of the same compound?
Its Remimazolam cmax is 1244 ng/mL.

What about the Remimazolam tmax ([1]; Animal No 2) of the same compound?
Its Remimazolam tmax is 2 min.

And the CNS7054 plasma concentration ([1]; Animal No 3, 1 min)?
The CNS7054 plasma concentration was 387 ng/mL.

What about the Remimazolam plasma concentration ([1]; Animal No 3, 1 min) of the same compound?
Its Remimazolam plasma concentration is 654 ng/mL.

And the CNS7054 plasma concentration ([1]; Animal No 3, 5 min)?
The CNS7054 plasma concentration was 815 ng/mL.

What about the Remimazolam plasma concentration ([1]; Animal No 3, 5 min) of the same compound?
The Remimazolam plasma concentration was 353.9 ng/mL.

And the CNS7054 plasma concentration ([1]; Animal No 3, 10 min)?
Its CNS7054 plasma concentration is 798 ng/mL.

What about the Remimazolam plasma concentration ([1]; Animal No 3, 10 min) of the same compound?
The Remimazolam plasma concentration was 201 ng/mL.

And the CNS7054 plasma concentration ([1]; Animal No 3, 20 min)?
Its CNS7054 plasma concentration is 770 ng/mL.

What about the Remimazolam plasma concentration ([1]; Animal No 3, 20 min) of the same compound?
Its Remimazolam plasma concentration is 124.3 ng/mL.

And the CNS7054 plasma concentration ([1]; Animal No 3, 40 min)?
Its CNS7054 plasma concentration is 625 ng/mL.

And the Remimazolam plasma concentration ([1]; Animal No 3, 40 min)?
The Remimazolam plasma concentration was 41.2 ng/mL.

And the CNS7054 plasma concentration ([1]; Animal No 3, 60 min)?
The CNS7054 plasma concentration was 423 ng/mL.

What about the Remimazolam plasma concentration ([1]; Animal No 3, 60 min) of the same compound?
Its Remimazolam plasma concentration is 52.2 ng/mL.

And the CNS7054 plasma concentration ([1]; Animal No 3, 90 min)?
The CNS7054 plasma concentration was 123 ng/mL.

And the “CNS7054 AUC0-t” value ([1]; Animal No 3)?
Its value is 46682.5 ng·min/mL.

What about the CNS7054 cmax ([1]; Animal No 3) of the same compound?
Its CNS7054 cmax is 815 ng/mL.

And the CNS7054 tmax ([1]; Animal No 3)?
Its CNS7054 tmax is 5 min.

What about the “Remimazolam AUC0-t” value ([1]; Animal No 3) of the same compound?
The value was 8551.6 ng·min/mL.

And the Remimazolam cmax ([1]; Animal No 3)?
The Remimazolam cmax was 654 ng/mL.

What about the Remimazolam tmax ([1]; Animal No 3) of the same compound?
The Remimazolam tmax was 2 min.
